US20110178174A1, “SALTS OF TRAMADOL AND IBUPROFEN AND THEIR CRYSTAL FORM IN THE TREATMENT OF PAIN” (LABORATORIOS DEL DR. ESTEVE, S.A., priority 2008, published 2011)

Experiments:
[1] = cited from earlier work
[2] = Thermogravimetric (TG) analysis, weight loss due to decomposition; assay type: physicochemical; conditions: heated at 10° C./min from 30 to 500° C., under nitrogen (80 mL/min)
Description: Thermogravimetric analyses were recorded in a Mettler Toledo SDTA851e. Samples of 3-4 mg were weighted into 40 μL aluminium crucibles with a pinhole lid, and heated at 10° C./min from 30 to 500° C., under nitrogen (80 mL/min).

CC(C)Cc1ccc(C(C)C(=O)O)cc1 (stereo not shown) [ibuprofen, 2-[4-(2-methylpropyl)phenyl]propanoic acid]
amount of ibuprofen that dissolves in 1 ml of water [1]: Less than 1 mg

CC(C)Cc1ccc([C@H](C)C(=O)O)cc1.COc1cccc([C@]2(O)CCCC[C@H]2CN(C)C)c1 [(−)-tramadol-(S)-ibuprofen salt, Phase 2, (−)-tramadol-(S)-ibuprofen Salt, Phase 2]
TG analysis: weight loss beginning due to decomposition (temperature) [2]: 130 °C

(+)-tramadol-(S)-ibuprofen salt
TG analysis: weight loss beginning due to decomposition (temperature) [2]: 130 °C

CC(C)Cc1ccc([C@H](C)C(=O)O)cc1.COc1cccc([C@]2(O)CCCC[C@H]2CN(C)C)c1 [(−)-tramadol-(S)-ibuprofen salt, Phase 1]
TG analysis: weight loss beginning due to decomposition (temperature) [2]: 140 °C
